Reference: patent US11771086B2, “Pest control composition including novel iminopyridine derivative” (priority 2012, dated 2023)
Read-outs that look alike come from different tables or passages of the source.

Assays:
Plutella xylostella [1] = assay: whole plant or invertebrate; format: in vivo
Description: (§1) After an air drying process, second instar larvae were released thereto. […] The test was performed in duplicate.
(§2) Method for Judging Synergistic Effects

Spodoptera litura = assay: whole plant or invertebrate; format: in vivo
Description: After an air drying process, third instar larvae were released thereto. […] The test was performed in duplicate.
as §2

[2] = tested on: Haemaphysalis longicornis; assay: whole plant or invertebrate; format: in vivo; conditions: for mortality at 0.00038 mg: read-out: Mortality of single agent against Haemaphysalis longicornis, single agent 0.38 μg
Description: A capsule with a diameter of 2 cm and a height of 2 cm was attached to the dorsal surface of a mouse. A compound of Formula (I), ivermectin, moxidectin, permethrin, amitraz, fipronil, spinetram and the mixture of the compound of Formula (I) and each insecticide were dissolved in ethanol at the concentrations given in […], and each of these was dripped onto the surface of a mouse body within a capsule. After thorough drying, eight Haemaphysalis longicornis nymphs were released and the top of the capsule was sealed with a lid. The mouse was kept in a cage at 25° C. using a 12-hour light period and a 12-hour dark period. Five days after the release, the capsule was removed and the number of surviving and dead nymphs and the number of engorged individuals were counted and the insect mortality and agonal rate was calculated by the following equation. Insect mortality and agonal rate (%)={number of dead and agonal insects/(number of survived insects+number of dead and agonal insects)}×100

Laodelphax striatella [3] = assay: whole plant or invertebrate; conditions: for Theoretical value by Colby's equation: Laodelphax striatella soil irrigation; for mortality at 0.005 mg/seedling: read-out: Mortality of single agent against Laodelphax striatella, single agent 0.005 mg/Seedling; for mortality at 0.05 mg/seedling: read-out: Mortality of single agent against Laodelphax striatella, single agent 0.05 mg/Seedling
Description: After the rice seedling was left to stand for 3 days, second instar larvae were released thereto. Thereafter, the larvae were left to stand in a thermostatic chamber (16 hours of light period-8 hours of dark period) at 25° C. […] The test was performed in duplicate. Mortality of larvae (%)={number of dead larvae/(number of survived larvae+number of dead larvae)}×100
B: 100−(mortality of larvae or adults when treated only with each of imidacloprid, fipronil, chlorantraniliprole, spinosad, clothianidin, dinotefuran, sulfoxaflor, pymetrozine, thiamethoxam, flupyradifurone and cycloxaprid))
as §2
When the mortality against Laodelphax striatella in the case of a mixture with another agent exceeded the theoretical value by the Colby's equation, a synergistic effect was judged to be present.

Laodelphax striatella [4] = assay: whole plant or invertebrate; format: in vivo
Description: as §1, §2

Chilo suppressalis = format: in vivo; conditions: soil irrigation, six days after release
Description: After standing for 3 days, second instar larvae were released thereto. […] The test was performed in duplicate.
as §2

Laodelphax striatella [5] = assay: Reference Test Example 18 Pest control test of Laodelphax striatella (wheat seedling root treatment); format: in vivo; conditions: wheat seedling roots treated; four days after release; 20 μg/seedling
Description: The drug was absorbed from the roots for 72 hours, and then ten second instar larvae of Laodelphax striatella were each released thereto. […] The test was performed in duplicate.

Plutella xylostella [6] = assay: Reference Test Example 1 Pest control test of Plutella xylostella (foliar treatment, single agent); format: in vivo; set-up: Plutella xylostella (Reference Test Example 1), mortality of larvae: concentration or dose not given beside the values; conditions: foliar treatment, single agent
Source text: After an air drying process, second instar larvae were released thereto. […] Test in duplicate.

Aphis gossypii = assay: Reference Test Example 3 Pest control test of Aphis gossypii (foliar treatment, single agent); format: in vivo; set-up: Aphis gossypii (Reference Test Example 3), mortality of larvae: concentration or dose not given beside the values; conditions: foliar treatment, single agent
[7] = Laodelphax striatellus, foliar, 72 h, read-out: Mortality of single agent against Laodelphax striatella
[8] = Laodelphax striatellus, soil, 72 h, soil irrigation
[9] = Haemaphysalis longicornis, topical, 120 h, capsule on mouse, five days, mortality and agonal rate

CCc1nc2cc(C)c(Oc3ccc(OC(F)(F)F)cc3)cc2c(OC(=O)OC)c1C [Flometoquin]
Theoretical value by Colby's equation (Plutella xylostella [1]; Plutella xylostella, single agent 0.313 ppm (other component 0)): 0% | Mortality of single agent against Plutella xylostella (Plutella xylostella [1]; single agent 0.313 ppm, cabbage leaf disk spray, three days): 0% | Theoretical value by Colby's equation (Spodoptera litura; Spodoptera litura, single agent 5 ppm (other component 0)): 10% | Mortality of single agent against Spodoptera litura (Spodoptera litura; single agent 5 ppm, cabbage leaf disk spray, three days): 10%

CN/C(=N/CC1CCOC1)N[N+](=O)[O-] (centres unmarked) [dinotefuran]
mortality at 0.0019 mg ([2]; Haemaphysalis longicornis, topical, 120 h, read-out: Mortality of single agent against Haemaphysalis longicornis, single agent 1.9 μg, capsule on mouse, five days, mortality and agonal rate): 0%

CC[C@H](C)[C@H]1O[C@]2(CC[C@@H]1C)C[C@@H]1C[C@@H](C/C=C(\C)[C@@H](O[C@H]3C[C@H](OC)[C@@H](O[C@H]4C[C@H](OC)[C@@H](O)[C@H](C)O4)[C@H](C)O3)[C@@H](C)/C=C/C=C3\CO[C@@H]4[C@H](O)C(C)=C[C@@H](C(=O)O1)[C@]34O)O2 [Ivermectin]
Mortality of single agent against Haemaphysalis longicornis ([2]; single agent 0.009 μg, capsule on mouse, five days, mortality and agonal rate): 3%

O=[N+]([O-])C1=C2N(Cc3ccc(Cl)nc3)CCN2[C@H]2CC[C@@H]1O2 [Cycloxaprid]
Theoretical value by Colby's equation (Laodelphax striatella [3]; single agent 0.005 mg/Seedling (other component 0)): 0% | Mortality of single agent against Laodelphax striatella (Laodelphax striatella [3]; single agent 0.005 mg/Seedling, soil irrigation): 0%

O=c1c(-c2ccccc2)c([O-])[n+](Cc2ccc(Cl)nc2)c2ccccn12 [1-((6-chloropyridin-3-yl)methyl)-4-oxo-3-phenyl-4H-pyrido[1,2-a]pyrimidin-1-ium-2-olate]
mortality at 1 ppm (Plutella xylostella [1]; Plutella xylostella, foliar, 72 h, read-out: Mortality of single agent against Plutella xylostella, single agent 1 ppm, cabbage leaf disk spray, three days): 30% | Theoretical value by Colby's equation (Plutella xylostella [1]; Plutella xylostella, single agent 1 ppm (other component 0)): 30%

CC(COc1ccc(Oc2ccccc2)cc1)Oc1ccccn1 (centres unmarked) [pyriproxyfen]
mortality at 47.5 ng ([2]; Haemaphysalis longicornis, topical, 120 h, read-out: Mortality of single agent against Haemaphysalis longicornis, single agent 0.0475 μg, capsule on mouse, five days, mortality and agonal rate): 2%

CO/N=C1\C[C@]2(C[C@@H]3C[C@@H](C/C=C(\C)C[C@@H](C)/C=C/C=C4\CO[C@@H]5[C@H](O)C(C)=C[C@@H](C(=O)O3)[C@]45O)O2)O[C@H](/C(C)=C/C(C)C)[C@H]1C [Moxidectin]
mortality at 9 ng ([2]; Haemaphysalis longicornis, topical, 120 h, read-out: Mortality of single agent against Haemaphysalis longicornis, single agent 0.009 μg, capsule on mouse, five days, mortality and agonal rate): 6%

CCOc1ccc([Si](C)(C)CCCc2ccc(F)c(Oc3ccccc3)c2)cc1 [Silafluofen]
Mortality of single agent (Laodelphax striatella [4]; Laodelphax striatella foliar, single agent 5 ppm (other component 0)): 55% | mortality at 5 ppm (Laodelphax striatella [4]; [7]): 55%

O=C1C=C(N(Cc2ccc(Cl)nc2)CC(F)F)CO1 [Flupyradifurone]
Theoretical value by Colby's equation (Laodelphax striatella [3]; single agent 0.01 mg/Seedling (other component 0)): 5% | Mortality of single agent against Laodelphax striatella (Laodelphax striatella [3]; single agent 0.01 mg/Seedling, soil irrigation): 5%

spinosad
Theoretical value by Colby's equation ([2]; Haemaphysalis longicornis, single agent 1.9 μg (other component 0)): 2.5% | Mortality of single agent against Haemaphysalis longicornis ([2]; single agent 1.9 μg, capsule on mouse, five days, mortality and agonal rate): 2.5%

CNC(=O)c1cc(C#N)cc(C)c1NC(=O)c1cc(Br)nn1-c1ncccc1Cl [Cyantraniliprole]
Mortality of single agent against Chilo suppressalis (Chilo suppressalis; single agent 0.005 mg/seedling): 83%

CN1COCN(Cc2cnc(Cl)s2)/C1=N\[N+](=O)[O-] [Thiamethoxam]
mortality at 0.01 mg/seedling (Laodelphax striatella [3]; Laodelphax striatellus, soil, 72 h, read-out: Mortality of single agent against Laodelphax striatella, single agent 0.01 mg/Seedling, soil irrigation): 23%

Emamectin benzoate
Theoretical value by Colby's equation (Spodoptera litura; Spodoptera litura, single agent 0.02 ppm (other component 0)): 0% | Mortality of single agent against Spodoptera litura (Spodoptera litura; single agent 0.02 ppm, cabbage leaf disk spray, three days): 0%

CC1(C)C(C=C(Cl)Cl)C1C(=O)OCc1cccc(Oc2ccccc2)c1 (centres unmarked) [Permethrin]
mortality at 0.0095 mg ([2]; Haemaphysalis longicornis, topical, 120 h, read-out: Mortality of single agent against Haemaphysalis longicornis, single agent 9.5 μg, capsule on mouse, five days, mortality and agonal rate): 71%

CC(c1ccc(C(F)(F)F)nc1)S(C)(=O)=NC#N (centres unmarked) [Sulfoxaflor]
mortality at 0.005 mg/seedling (Laodelphax striatella [3]; [8]): 1%

CN/C(=N\[N+](=O)[O-])NCc1cnc(Cl)s1 [Clothianidin]
mortality at 0.005 mg/seedling (Laodelphax striatella [3]; [8]): 23%

N#Cc1nn(-c2c(Cl)cc(C(F)(F)F)cc2Cl)c(N)c1[S+]([O-])C(F)(F)F (centres unmarked) [fipronil]
mortality at 0.00038 mg [2, 9]: 78%

CNC(=O)c1cc(Cl)cc(C)c1NC(=O)c1cc(Br)nn1-c1ncccc1Cl [Chlorantraniliprole]
mortality at 0.05 mg/seedling (Laodelphax striatella [3]; [8]): 9% | Theoretical value by Colby's equation (Plutella xylostella [1]; 0.002 ppm): 60% | mortality at 0.002 ppm (Plutella xylostella [1]; Plutella xylostella, foliar, 72 h, read-out: Mortality of single agent against Plutella xylostella, single agent 0.002 ppm, cabbage leaf disk spray, three days): 60% | Mortality of single agent against Chilo suppressalis (Chilo suppressalis; single agent 0.0005 mg/seedling): 60% | Theoretical value by Colby's equation (Spodoptera litura; 0.02 ppm): 20% | mortality at 0.02 ppm (Spodoptera litura; Spodoptera litura, foliar, 72 h, read-out: Mortality of single agent against Spodoptera litura, single agent 0.02 ppm, cabbage leaf disk spray, three days): 20%

CC1=NNC(=O)N(/N=C/c2cccnc2)C1 [Pymetrozine]
mortality at 0.05 mg/seedling (Laodelphax striatella [3]; [8]): 15%

Cc1ccc(/N=C/N(C)/C=N/c2ccc(C)cc2C)c(C)c1 [Amitraz]
mortality at 0.00038 mg [2, 9]: 41%

CCOc1ccc(C(C)(C)COCc2cccc(Oc3ccccc3)c2)cc1 [Etofenprox]
mortality at 10 ppm (Laodelphax striatella [4]; [7]): 30% | Theoretical value by Colby's equation (Laodelphax striatella [4]; foliar, 10 ppm): 30%

O=C(N=c1ccc(F)cn1Cc1ccc(Cl)nc1)C(F)(F)F [Compound P-216]
Laodelphax striatella (Reference Test Example 18), mortality of larvae (Laodelphax striatella [5]): 100% | Plutella xylostella (Reference Test Example 1), mortality of larvae (Plutella xylostella [6]): 100% | Aphis gossypii (Reference Test Example 3), mortality of larvae (Aphis gossypii): 95%

O=C(/N=c1\ccccn1Cc1ccc(F)nc1)C(F)F [Compound 3-3, 2,2-difluoro-N-[1-((6-fluoropyridin-3-yl)methyl)pyridin-2(1H)-ylidene]acetamide]
Laodelphax striatella (Reference Test Example 18), mortality of larvae (Laodelphax striatella [5]): 80% | Plutella xylostella (Reference Test Example 1), mortality of larvae (Plutella xylostella [6]): 50% | Aphis gossypii (Reference Test Example 3), mortality of larvae (Aphis gossypii): 100%

O=C(N=c1ccccn1Cc1ccc(Cl)nc1)C(F)(F)Cl [Compound P-239]
Laodelphax striatella (Reference Test Example 18), mortality of larvae (Laodelphax striatella [5]): 100% | Plutella xylostella (Reference Test Example 1), mortality of larvae (Plutella xylostella [6]): 100% | Aphis gossypii (Reference Test Example 3), mortality of larvae (Aphis gossypii): 100%

spinetoram
Theoretical value by Colby's equation ([2]; Haemaphysalis longicornis, single agent 0.38 μg (other component 0)): 6% | Mortality of single agent against Haemaphysalis longicornis ([2]; single agent 0.38 μg, capsule on mouse, five days, mortality and agonal rate): 6%

O=C(N=c1ccccn1Cc1ccc(Br)nc1)C(F)(F)F [Compound P-231]
Laodelphax striatella (Reference Test Example 18), mortality of larvae (Laodelphax striatella [5]): 100% | Plutella xylostella (Reference Test Example 1), mortality of larvae (Plutella xylostella [6]): 100% | Aphis gossypii (Reference Test Example 3), mortality of larvae (Aphis gossypii): 100%

O=C(N=c1ccccn1Cc1ccc(F)nc1)C(F)(F)F [Compound P-229]
Laodelphax striatella (Reference Test Example 18), mortality of larvae (Laodelphax striatella [5]): 100% | Plutella xylostella (Reference Test Example 1), mortality of larvae (Plutella xylostella [6]): 100% | Aphis gossypii (Reference Test Example 3), mortality of larvae (Aphis gossypii): 100%

O=C(N=c1ccccn1Cc1ccc(Cl)nc1)C(F)(F)C(F)(F)F [Compound P-242]
Laodelphax striatella (Reference Test Example 18), mortality of larvae (Laodelphax striatella [5]): 100% | Plutella xylostella (Reference Test Example 1), mortality of larvae (Plutella xylostella [6]): 100% | Aphis gossypii (Reference Test Example 3), mortality of larvae (Aphis gossypii): 100%
